Source: US12643912B2, “Macrocyclic compounds, a process for their preparation and pharmaceutical compositions containing them” (LES LABORATOIRES SERVIER, priority 2020, dated 2026)
Where two headings read alike, the source gives them in different places.

What was measured:
[1] = system: Nrf2 (Keap1-NRF2 nuclear translocation); assay: U2OS translocation assay (PathHunter U2OS Keap1-NRF2 Nuclear Translocation Cell Line); assay type: cell-based
Outline: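 PathHunter U2OS line expressing Nrf2-enzyme-donor fusion and nuclear acceptor enzyme, 7 500 cells/well in Opti-MEM, 1% FBS. Compounds incubated 3 h at 37° C. Luminescence after 60 min with detection reagent, normalized between 1% DMSO and 10 μM andrographolide.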

Keap1 (A321-C624) (h) = molecular target: T1, Keap1 (A321-C624) (h) (Homo sapiens, UniProt Q14145); assay: Surface Plasmon Resonance binding assay to Kelch domain of KEAP1; settings: Biacore T200, 25° C., immobilized His-Thromb-KEAP1(A321-C624), single cycle kinetics, KD=kd/ka from 1:1 fit; read-out: Keap1 (A321-C624) (h) direct/SPR (KD)
T1 construct: His-Thromb-KEAP1(A321-C624) acquired from Novalix (batch PU-P01) was immobilized covalently by amine coupling; His tag (N); thrombin cleavage site (Thromb) (N); purchased Novalix batch PU-P01
Outline: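 His-Thromb-KEAP1(A321-C624) amine-coupled on CM5 chip to 1250 RU; amine blank reference. Run at 25° C in HEPES pH 7.4, 150 mM NaCl, 3 mM EDTA, 1 mM TCEP, 0.05% P20, 5% DMSO; 180 s association, 720 s dissociation, 50 μL/min. KD = kd/ka from 1:1 kinetic fit, double-referenced, DMSO solvent-corrected.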

[2] = read-out: CELLULAR U2OS EC50, U2OS Keap1-NRF2 nuclear translocation cells, 3 h incubation, luminescence, normalized between 1% DMSO and 10 μM andrographolide
[3] = Homo sapiens, U2OS, 3 h, read-out: CELLULAR U2OS EC50 (nM), U2OS Keap1-NRF2 nuclear translocation cells, 3 h incubation, luminescence, normalized between 1% DMSO and 10 μM andrographolide

T1 sequence (Q14145 321-624): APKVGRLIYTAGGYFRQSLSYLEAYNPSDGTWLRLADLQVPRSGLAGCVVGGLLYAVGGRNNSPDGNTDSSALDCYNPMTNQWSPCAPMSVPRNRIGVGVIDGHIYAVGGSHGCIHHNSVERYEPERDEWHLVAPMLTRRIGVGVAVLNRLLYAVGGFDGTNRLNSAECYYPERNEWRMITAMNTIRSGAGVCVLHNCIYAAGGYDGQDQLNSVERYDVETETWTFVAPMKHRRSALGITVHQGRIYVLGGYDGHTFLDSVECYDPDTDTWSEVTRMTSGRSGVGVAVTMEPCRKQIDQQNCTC

SMILES	EC50 [1, 2] [nM]	Kd (Keap1 (A321-C624) (h)) [nM]	EC50 [1, 3] [nM]
Cc1ccc2cc1CN1Cc3c(ccc(c3Cl)OCCCCn3nnc4c(C)c(ccc43)C2CC(=O)O)OS1(=O)=O (single isomer, unassigned) [Example 66a, [30-Chloro-4,31-dimethyl-27,27-dioxo-21,26-dioxa-27λ^6-thia-1,14,15,16-tetraazahexacyclo[20.5.3.1^3,70.1^9,130.0^12,160.0^25,29]dotriaconta-3(32),4,6,9(31),10,12,14,22,24,29-decaen-8-yl]acetic acid]	3.44	0.678	–
COc1cc2cc3c1OS(=O)(=O)N(C3)[C@H](C)c1cc(ccc1C)[C@@H](CC(=O)O)c1ccc3c(nnn3CCCCO2)c1C [Example 23a, [(2R,8R)-24-Methoxy-2,4,31-trimethyl-27,27-dioxo-21,26-dioxa-27λ^6-thia-1,14,15,16-tetraazahexacyclo[20.5.3.1^3,70.1^9,130.0^12,160.0^25,29]dotriaconta-3(32),4,6,9(31),10,12,14,22,24,29-decaen-8-yl]acetic acid]	–	50.5	3160
Cc1ccc2cc1CN1Cc3cc(ccc3OS1(=O)=O)OCCSCCn1nnc3c(C)c(ccc31)C2CC(=O)O (single isomer, unassigned) [Example 63a, [4,32-Dimethyl-28,28-dioxo-22,27-dioxa-19,28λ^6-dithia-1,14,15,16-tetraazahexacyclo[21.5.3.1^3,70.1^9,130.0^12,160.0^26,30]tritriaconta-3(33),4,6,9(32),10,12,14,23,25,30-decaen-8-yl]acetic acid]	–	4.39	57.1
Cc1ccc2cc1CN1Cc3cc(ccc3OS1(=O)=O)OCCCCCn1nnc3c(C)c(ccc31)C2CC(=O)O (single isomer, unassigned) [Example 1b, [4,32-dimethyl-28,28-dioxo-22,27-dioxa-28λ^6-thia-1,14,15,16-tetraazahexacyclo[21.5.3.1^3,70.1^9,130.0^12,160.0^26,30]tritriaconta-3(33),4,6,9(32),10,12,14,23,25,30-decaen-8-yl]acetic acid]	735	3.97	–
COc1cc2cc(c1OC)CN1Cc3cc(ccc3OS1(=O)=O)OCCCCn1nnc3c(C)c(ccc31)C2CC(=O)O (single isomer, unassigned) [Example 35b, [4,5-Dimethoxy-31-methyl-27,27-dioxo-21,26-dioxa-27λ^6-thia-1,14,15,16-tetraazahexacyclo[20.5.3.1^3,70.1^9,130.0^12,160.0^25,29]dotriaconta-3(32),4,6,9(31),10,12,14,22,24,29-decaen-8-yl]acetic acid]	> 3160	7450	–
Cc1ccc2cc1[C@@H](C)N1Cc3cc(ccc3OS1(=O)=O)OCCOCCCn1nnc3c(C)c(ccc31)[C@H]2CC(=O)O [Example 26a, [(2R,8S)-2,4,33-Trimethyl-29,29-dioxo-20,23,28-trioxa-29λ^6-thia-1,14,15,16-tetraazahexacyclo[22.5.3.1^3,70.1^9,130.0^12,160.0^27,31]tetratriaconta-3(34),4,6,9(33),10,12,14,24,26,31-decaen-8-yl]acetic acid]	–	3.4	11.3
COCCC1CCOc2ccc3c(c2)CN([C@H](C)c2cc(ccc2C)[C@@H](CC(=O)O)c2ccc4c(nnn4C1)c2C)S(=O)(=O)O3 (single isomer, unassigned) [Example 24c]	–	5	60
Cc1ccc2cc1CN1Cc3cc(c(Cl)cc3OS1(=O)=O)OCCCCn1nnc3c(C)c(ccc31)C2CC(=O)O (single isomer, unassigned) [Example 22b, [23-Chloro-4,31-dimethyl-27,27-dioxo-21,26-dioxa-27λ^6-thia-1,14,15,16-tetraazahexacyclo[20.5.3.1^3,70.1^9,130.0^12,160.0^25,29]dotriaconta-3(32),4,6,9(31),10,12,14,22,24,29-decaen-8-yl]acetic acid]	111	2.11	–
Cc1c2ccc3c1nnn3CCCCOc1ccc3c(c1)CN(Cc1cc(ccc1F)C2CC(=O)O)S(=O)(=O)O3 (stereo not drawn) [Example 14, [4-Fluoro-31-methyl-27,27-dioxo-21,26-dioxa-27λ^6-thia-1,14,15,16-tetraazahexacyclo[20.5.3.1^3,70.1^9,130.0^12,160.0^25,29]dotriaconta-3(32),4,6,9(31),10,12,14,22,24,29-decaen-8-yl]acetic acid]	–	14.2	582
COc1ccc2cc1CN1Cc3cc(ccc3OS1(=O)=O)OCc1ccccc1OCCCCn1nnc3c(C)c(ccc31)C2CC(=O)O (single isomer, unassigned) [Example 53a, [4-Methoxy-39-methyl-35,35-dioxo-21,29,34-trioxa-35λ^6-thia-1,14,15,16-tetraazaheptacyclo[28.5.3.1^3,70.1^9,130.0^12,160.0^22,270.0^33,37]tetraconta-3(40),4,6,9(39),10,12,14,22,24,26,30,32,37-tridecaen-8-yl]acetic acid]	369	47.7	–
Cc1ccc2cc1CN1Cc3cc(cc(F)c3OS1(=O)=O)OCCCCn1nnc3c(C)c(ccc31)C2CC(=O)O (single isomer, unassigned) [Example 17b, [24-Fluoro-4,31-dimethyl-27,27-dioxo-21,26-dioxa-27λ^6-thia-1,14,15,16-tetraazahexacyclo[20.5.3.1^3,70.1^9,130.0^12,160.0^25,29]dotriaconta-3(32),4,6,9(31),10,12,14,22,24,29-decaen-8-yl]acetic acid]	89	5.55	–
Cc1ccc2cc1CN1Cc3cc(ccc3OS1(=O)=O)OCCCCn1nnc3c(C)c(ccc31)[C@H]2CC(=O)O [Example 7a, [(8S)-4,31-Dimethyl-27,27-dioxo-21,26-dioxa-27λ^6-thia-1,14,15,16-tetraazahexacyclo[20.5.3.1^3,70.1^9,130.0^12,160.0^25,29]dotriaconta-3(32),4,6,9(31),10,12,14,22,24,29-decaen-8-yl]acetic acid]	–	1.07	23
Cc1ccc2cc1CN1Cc3cc(cc(F)c3OS1(=O)=O)OCCCCn1nnc3c(C)c(ccc31)C2CC(=O)O (single isomer, unassigned) [Example 17a, [24-Fluoro-4,31-dimethyl-27,27-dioxo-21,26-dioxa-27λ^6-thia-1,14,15,16-tetraazahexacyclo[20.5.3.1^3,70.1^9,130.0^12,160.0^25,29]dotriaconta-3(32),4,6,9(31),10,12,14,22,24,29-decaen-8-yl]acetic acid]	1660	25.7	–
Cc1c2ccc3c1nnn3CCCCOc1ccc3c(c1)CN(Cc1cc(ccc1Cl)C2CC(=O)O)S(=O)(=O)O3 (single isomer, unassigned) [Example 9a, [4-Chloro-31-methyl-27,27-dioxo-21,26-dioxa-27λ^6-thia-1,14,15,16-tetraazahexacyclo[20.5.3.1^3,70.1^9,130.0^12,160.0^25,29]dotriaconta-3(32),4,6,9(31),10,12,14,22,24,29-decaen-8-yl]acetic acid]	48.2	2.12	–
Cc1ccc2cc1CN1Cc3cc(ccc3OS1(=O)=O)N(C)C(=O)CCCn1nnc3c(C)c(ccc31)C2CC(=O)O (stereo not drawn) [Example 43, [4,21,31-Trimethyl-20,27,27-trioxo-26-oxa-27λ^6-thia-1,14,15,16,21-pentaazahexacyclo[20.5.3.1^3,70.1^9,130.0^12,160.0^25,29]dotriaconta-3(32),4,6,9(31),10,12,14,22,24,29-decaen-8-yl]acetic acid]	–	2.92	570
Cc1ccc2cc1CN1Cc3cc(ccc3OS1(=O)=O)OC[C@H](O)CCn1nnc3c(C)c(ccc31)C2CC(=O)O (stereo partly drawn) [Example 44, [(19R)-19-hydroxy-4,31-dimethyl-27,27-dioxo-21,26-dioxa-27λ^6-thia-1,14,15,16-tetraazahexacyclo[20.5.3.1^3,70.1^9,130.0^12,160.0^25,29]dotriaconta-3(32),4,6,9(31),10,12,14,22,24,29-decaen-8-yl]acetic acid]	–	0.146	292
Cc1ccc2cc1CN1Cc3cc(ccc3OS1(=O)=O)OCCCCn1cc(nn1)C(=O)NC2CC(=O)O (single isomer, unassigned) [Example 72b, [4-Methyl-10,25,25-trioxo-19,24-dioxa-25λ^6-thia-1,9,12,13,14-pentaazapentacyclo[18.5.3.1^3,70.1^11,140.0^23,27]triaconta-3(30),4,6,11(29),12,20,22,27-octaen-8-yl]acetic acid]	> 3160	730	–
Cc1ccc2cc1CN1Cc3cc(ccc3N(C)S1(=O)=O)OCCCCn1nnc3c(C)c(ccc31)C2CC(=O)O (single isomer, unassigned) [Example 39a, [4,26,31-Trimethyl-27,27-dioxo-21-oxa-27λ^6-thia-1,14,15,16,26-pentaazahexacyclo[20.5.3.1^3,70.1^9,130.0^12,160.0^25,29]dotriaconta-3(32),4,6,9(31),10,12,14,22,24,29-decaen-8-yl]acetic acid]	14.2	0.137	–
